Where only a bound is given, the exact number is not on record here.

What all share (assay): NCI 60 single concentration growth inhibition
What all share (type): cell-based, human

Test [1] relates to PC-3. The note with it: Homo sapiens, PC-3, Prostate cancer, read-out: GI%. The protocol: (§1) The synthesized dichlorobenzimidazoles 10a–p were assayed for their influence on divers cancer cell lines according to the method presented in the Additional file A.
(§2) 5. Screening of cytotoxic activity against a panel of sixty human tumor cell lines
(§3) The selected compounds by NCI were evaluated for their anticancer activity in a two-stage process. First, these compounds were screened against the full NCI 60 cell lines panel at a single high dose of 10 µM. Then, the output from the single dose screen is reported as a mean graph. […]
(§4) at five different minimal concentrations.
(§5) Assay protocol. The human tumor cell lines of the cancer screening panel are grown in RPMI 1640 medium containing 5% fetal bovine serum and 2 mM L-glutamine. For a typical screening experiment, cells are inoculated into 96 well microtiter plates in 100 µL at plating densities ranging from 5000 to 40,000 cells/well depending on the doubling time of individual cell lines. After cell inoculation, the microtiter plates are incubated at 37 °C, 5% CO 2, 95% air and 100% relative humidity for 24 h prior to addition of the experimental drugs.
(§6) After 24 h, two plates of each cell line are fixed in situ with TCA, to represent a measurement of the cell population for each cell line at the time of drug addition (Tz). The experimental drugs are solubilized in dimethyl sulfoxide at 400-fold the desired final maximum test concentration and stored frozen prior to use. At the time of drug addition, an aliquot of frozen concentrate is thawed and diluted to twice the desired final maximum test concentration with complete medium containing 50 µg/mL gentamicin. Additional four, 10-fold or ½ log serial dilutions are made to provide a total of five drug concentrations plus control.
(§7) Aliquots of […] of these different drug dilutions are added to the appropriate microtiter wells already containing […] of medium, resulting in the required final drug concentrations.
(§8) Following drug addition, the plates are incubated for an additional 48 h at 37 °C, 5% CO 2, 95% air, and 100% relative humidity. For adherent cells, the assay is terminated by the addition of cold TCA.
(§9) Cells are fixed in situ by the gentle addition of 50 µL of cold 50% (w/v) TCA (final concentration, 10% TCA) and incubated for 60 min at 4 °C. The supernatant is discarded, and the plates are washed five times with tap water and air dried. Sulforhodamine B (SRB) solution ([…]) at 0.4% (w/v) in 1% acetic acid is added to each well, and plates are incubated for 10 min at room temperature. After staining, unbound dye is removed by washing five times with 1% acetic acid and the plates are air dried. Bound stain is subsequently solubilized with 10 mM trizma base, and the absorbance is read on an automated plate reader at a wavelength of 515 nm. For suspension cells, the methodology is […]
(§10) the same except that the assay is terminated by fixing settled cells at the bottom of the wells by gently adding 50 µl of 80% TCA (final concentration, 16% TCA). Using the seven absorbance measurements [time zero, (Tz), control growth, (C), and test growth in the presence of drug at the five concentration levels (Ti)], the percentage growth is calculated at each of the drug concentrations […]
(§11) Percentage growth inhibition is calculated as: [(Ti Tz)/(C–Tz)] x 100 for concentrations for which Ti>/=Tz and [(Ti-Tz)/Tz] x 100 for concentrations for which Ti < Tz.
(§12) Three dose response parameters are calculated for each experimental agent. Growth […]
(§13) concentration resulting in a 50% reduction in the net protein increase (as measured by SRB staining) in control cells during the drug incubation. The drug concentration resulting in total growth inhibition (TGI) is calculated from Ti = Tz. […]
(§14) reduction in the measured protein at the end of the drug treatment as compared to that at the beginning) indicating a net loss of cells following treatment is calculated from [(Ti–Tz)/Tz] x 100 =
(§15) _50. Values are calculated for each of these three parameters if the level of activity is reached; […]

Test [2] has as its system SK-MEL-2. The note with it: Homo sapiens, SK-MEL-2, Melanoma, read-out: GI%. The protocol: as §1, §2, §3, §4, §5, §6, §7, §8, §9, §10, §11, §12, §13, §14, §15
Test [3] deals with HOP-62. The note with it: Homo sapiens, HOP-62, Non-small cell lung cancer, read-out: GI%. The protocol:
as §1, §2, §3, §4, §5, §6, §7, §8, §9, §10, §11, §12, §13, §14, §15

Test [4] relates to RXF 393. The note with it: Homo sapiens, RXF 393, Renal cancer, read-out: GI%. The protocol: as §1, §2, §3, §4, §5, §6, §7, §8, §9, §10, §11, §12, §13, §14, §15
For test [5], the system named is UACC-62. The note with it: Homo sapiens, UACC-62, Melanoma, read-out: GI%. The protocol:
as §1, §2, §3, §4, §5, §6, §7, §8, §9, §10, §11, §12, §13, §14, §15

For test [6], the system named is T-47D. Conditions: Homo sapiens, T47D, Breast cancer, read-out: GI%. The protocol: as §1, §2, §3, §4, §5, §6, §7, §8, §9, §10, §11, §12, §13, §14, §15
In test [7] the test system is OVCAR-8. Conditions: Homo sapiens, OVCAR-8, Ovarian cancer, read-out: GI%. The protocol: as §1, §2, §3, §4, §5, §6, §7, §8, §9, §10, §11, §12, §13, §14, §15
Test [8] deals with UACC-257. The note with it: Homo sapiens, UACC-257, Melanoma, read-out: GI%. The protocol: as §1, §2, §3, §4, §5, §6, §7, §8, §9, §10, §11, §12, §13, §14, §15
The subject of test [9] is SF-295. Conditions: Homo sapiens, SF-295, CNS cancer, read-out: GI%. The protocol:
as §1, §2, §3, §4, §5, §6, §7, §8, §9, §10, §11, §12, §13, §14, §15

Test [10] concerns HS 578T. The note with it: Homo sapiens, Breast cancer, read-out: GI%. The protocol: as §1, §2, §3, §4, §5, §6, §7, §8, §9, §10, §11, §12, §13, §14, §15
Test [11] relates to EKVX. Conditions: Homo sapiens, Non-small cell lung cancer, read-out: GI%. The protocol: as §1, §2, §3, §4, §5, §6, §7, §8, §9, §10, §11, §12, §13, §14, §15
Test [12] deals with MCF7. The note with it: Homo sapiens, MCF7, Breast cancer, read-out: GI%. The protocol: as §1, §2, §3, §4, §5, §6, §7, §8, §9, §10, §11, §12, §13, §14, §15
In test [13] the test system is MDA-MB-231/ATCC. Conditions: Homo sapiens, Breast cancer, read-out: GI%. The protocol:
as §1, §2, §3, §4, §5, §6, §7, §8, §9, §10, §11, §12, §13, §14, §15

Test [14] has as its system OVCAR-5. Conditions: Homo sapiens, OVCAR-5, Ovarian cancer, read-out: GI%. The protocol: as §1, §2, §3, §4, §5, §6, §7, §8, §9, §10, §11, §12, §13, §14, §15
The subject of test [15] is BT-549. Conditions: Homo sapiens, BT-549, Breast cancer, read-out: GI%. The protocol:
as §1, §2, §3, §4, §5, §6, §7, §8, §9, §10, §11, §12, §13, §14, §15

Test [16] has as its system SN12C. The note with it: Homo sapiens, Renal cancer, read-out: GI%. The protocol: as §1, §2, §3, §4, §5, §6, §7, §8, §9, §10, §11, §12, §13, §14, §15
The test system of test [17] is SF-268. The note with it: Homo sapiens, SF-268, CNS cancer, read-out: GI%. The protocol: as §1, §2, §3, §4, §5, §6, §7, §8, §9, §10, §11, §12, §13, §14, §15
Test [18] relates to 786-0. Conditions: Homo sapiens, 786-0, Renal cancer, read-out: GI%. The protocol:
as §1, §2, §3, §4, §5, §6, §7, §8, §9, §10, §11, §12, §13, §14, §15

In test [19] the test system is SR. Conditions: Homo sapiens, Leukemia, read-out: GI%. The protocol:
as §1, §2, §3, §4, §5, §6, §7, §8, §9, §10, §11, §12, §13, §14, §15

Test [20] deals with SK-MEL-5. Conditions: Homo sapiens, SK-MEL-5, Melanoma, read-out: GI%. The protocol:
as §1, §2, §3, §4, §5, §6, §7, §8, §9, §10, §11, §12, §13, §14, §15

For test [21], the system named is A549/ATCC. The note with it: Homo sapiens, Non-small cell lung cancer, read-out: GI%. The protocol:
as §1, §2, §3, §4, §5, §6, §7, §8, §9, §10, §11, §12, §13, §14, §15

Test [22] has as its system M14. Conditions: Homo sapiens, M14, Melanoma, read-out: GI%. The protocol: as §1, §2, §3, §4, §5, §6, §7, §8, §9, §10, §11, §12, §13, §14, §15
In test [23] the test system is ACHN. Conditions: Homo sapiens, Renal cancer, read-out: GI%. The protocol: as §1, §2, §3, §4, §5, §6, §7, §8, §9, §10, §11, §12, §13, §14, §15

Turning to `COc1ccc(-c2nc3cc(Cl)c(Cl)cc3n2CC(=O)NN=Cc2ccc(O)cc2)cc1` [Compound 10b, 2-(5,6-Dichloro-2-(4-methoxyphenyl)-1H-benzo[d]imidazol-1-yl)-N'-(4-hydroxybenzylidene)acetohydrazide], the inhibition at 10 µM amounted to 40.7% in test [1]; 32.3% in test [2]; 19.3% in [3]; 41.2% in test [4]; 38% in [5]; 56.4% in test [6]. Moreover, the inhibition at 10 µM in test [7] turned out to be 28%; in test [8], 23.9%; in [9], 34%; in test [10], 37.8%; in test [11], 52.6%; in test [12], 74.2%. For the same compound, the inhibition at 10 µM in test [13] is 21.2%; in test [14] it was less than 5%; in test [15], 65.6%; in [16], 18%; in test [17] it was 52.5%; in test [18] it was 34.8%. In addition, the inhibition at 10 µM came to 64.7% in [19]; 52.1% in test [20]; 57.2% in test [21]; 39.1% in [22]; 33.4% in test [23].

Regarding `COC(=O)COc1cccc(C=NNC(=O)Cn2c(-c3ccc(OC)cc3)nc3cc(Cl)c(Cl)cc32)c1` [Compound 10g, Methyl-2-(3-((2-(2-(5,6-dichloro-2-(4-methoxyphenyl)-1H-benzo[d]imidazol-1-yl)acetyl)hydrazono)methyl)phenoxy)acetate], the inhibition at 10 µM was 36.9% in test [1]; less than 5% in test [2]; less than 5% in test [3]; 32.9% in test [4]; less than 5% in test [5]; 55.9% in [6]. Moreover, the inhibition at 10 µM in [7] was 84.2%; in test [8], less than 5%; in [9], less than 5%; in test [10], 13.9%; in test [11], 13.2%; in [12], 31.9%. The inhibition at 10 µM was 21.6% in test [13]; less than 5% in [14]; less than 5% in [15]; 40.7% in [16]; less than 5% in [17]; 10% in [18]. Also, the inhibition at 10 µM in test [19] is 78.3%; in test [20], 8.95%; in [21], less than 5%; in test [22] it was less than 5%; in test [23], less than 5%.

(Values after publication PMC11844072, “Novel 5,6-dichlorobenzimidazole derivatives as dual BRAFWT and BRAFV600E inhibitors: design, synthesis, anti-cancer activity and molecular dynamics simulations” (BMC Chemistry, 2025).)
